Converted amounts (≈) assume the structure as drawn.
Columns and labels:
Cryptococcus neoformans [1] = experiment: Antifungal activity against Cryptococcus neoformans ATCC 24067 assessed as inhibition of fungal growth incubated for 24 to 48 hrs by CLSI based broth microdilution method; assay type: functional; details: time 24-48 hrs
[2] = Antifungal activity against Cryptococcus gattii ATCC 24065 assessed as inhibition of fungal growth incubated for 24 to 48 hrs by CLSI protocol based broth microdilution method; assay type: functional, Cryptococcus gattii VGI; details: time 24-48 hrs
Candida albicans = experiment: Antifungal activity against Candida albicans SC5314 assessed as inhibition of fungal growth incubated for 24 to 48 hrs by CLSI protocol based broth microdilution method; assay type: functional; details: time 24-48 hrs
Nakaseomyces glabratus = experiment: Antifungal activity against Candida glabrata ATCC 2001 assessed as inhibition of fungal growth incubated for 24 to 48 hrs by CLSI protocol based broth microdilution method; assay type: functional; details: time 24-48 hrs
Pichia kudriavzevii = experiment: Antifungal activity against Candida krusei ATCC 20298 assessed as inhibition of fungal growth incubated for 24 to 48 hrs by CLSI protocol based broth microdilution method; assay type: functional; details: time 24-48 hrs
Candida parapsilosis = experiment: Antifungal activity against Candida parapsilosis ATCC 22019 assessed as inhibition of fungal growth incubated for 24 to 48 hrs by CLSI protocol based broth microdilution method; assay type: functional; details: Lodderomyces parapsilosis, time 24-48 hrs
Candida tropicalis = experiment: Antifungal activity against Candida tropicalis ATCC 750 assessed as inhibition of fungal growth incubated for 24 to 48 hrs by CLSI protocol based broth microdilution method; assay type: functional; details: time 24-48 hrs
[Candida] auris = Antifungal activity against Candida auris COLO 01 assessed as inhibition of fungal growth incubated for 24 to 48 hrs by CLSI protocol based broth microdilution method; assay type: functional; details: Candidozyma auris, time 24-48 hrs
[3] = Cytotoxicity against human PBMC cells assessed as inhibition of cell growth incubated for 24 to 48 hrs by MTT assay; assay type: toxicity, cell-based
Caco-2 = experiment: Cytotoxicity against human Caco-2 cells assessed as reduction in cell viability at 10 to 40 microg/ml measured upto 12 hrs by MTT assay; assay type: functional; details: dose 10-40 µg/ml, at 10 to 40 µg/mL
[4] = Apparent permeability across apical to basolateral side in human Caco-2 cells measured after 30 to 180 mins by HPLC-MS analysis; assay type: ADME, cell-based; details: time 30-180 min
[5] = Apparent permeability across basolateral to apical side in human Caco-2 cells measured after 30 to 180 mins by HPLC-MS analysis; assay type: ADME, cell-based; details: time 30-180 min
[6] = Efflux ratio of apparent permeability across basolateral to apical over apical to basolateral side in human Caco-2 cells measured after 30 to 180 mins by HPLC-MS analysis; assay type: ADME, cell-based; details: time 30-180 min
Cryptococcus neoformans [7] = experiment: Antifungal activity against Cryptococcus neoformans H99 infected in Tenebrio molitor larvae assessed as survival rate of larvae at 80 microg/ml measured after 24 hrs; assay type: functional

`CCOC(=O)Cc1csc(N/N=C(\C)CCC(=O)O)n1` showed an MIC (Cryptococcus neoformans [1]) of 3.2 µM (≈ 0.958 µg/mL), an MIC [2] of 3.2 µM (≈ 0.958 µg/mL) and an MIC (Candida albicans) of 3.2 µM (≈ 0.958 µg/mL). For the same compound, the MIC (Nakaseomyces glabratus) was 52.2 µM (≈ 15.6 µg/mL), the MIC (Pichia kudriavzevii) was 0.8 µM (≈ 0.239 µg/mL) and the MIC (Candida parapsilosis) was 1.6 µM (≈ 0.479 µg/mL). For the same compound, the MIC (Candida tropicalis) was 0.8 µM (≈ 0.239 µg/mL), the MIC ([Candida] auris) was 1.6 µM (≈ 0.479 µg/mL) and the IC50 [3] was > 500 µM. For the same compound, the Activity (Caco-2) was >70%, the Papp A→B [4] was 1.47 ×10⁻⁶ cm/s and the Papp B→A [5] was 5.26 ×10⁻⁶ cm/s. The efflux ratio [6] was 3.58 and the survival at 80 µg/mL (Cryptococcus neoformans [7]) was 63%.

Source: ChEMBL document CHEMBL5375986, “Discovery of Lead 2-Thiazolylhydrazones with Broad-Spectrum and Potent Antifungal Activity” (J Med Chem, 2023)
